For five compounds, IC50 results are on record in patent US20250163104A1, “MACROCYCLIC IMMUNOMODULATORS” (priority 2021, published 2025).

Each structure is given as a SMILES string. Where a SMILES comes first, the peptide text is derived from it. Bridges are numbered along the chain shown (N, C = ends). [ ]: non-standard residue; d: D form. The star is where a group is joined. Bip = N[C@@H](Cc1ccc(-c2ccccc2)cc1)C(=O)O; Phe(3-Me) = Cc1cccc(C[C@H](N)C(=O)O)c1; Cha = N[C@@H](CC1CCCCC1)C(=O)O; Carboxymethyl = O=C(O)C*; Orn = NCCC[C@H](N)C(=O)O; Dab = NCC[C@H](N)C(=O)O; Dap = NC[C@H](N)C(=O)O

For this test, the target named is T1, human PD-1 / PD-L1-Ig binding on Jurkat cell line over-expressing human PD-1 (Jurkat-PD-1) (Homo sapiens, UniProt Q15116).
T1 construct: expressed in transfected cells; host or cells: Jurkat
T1 sequence (Q15116 25-288): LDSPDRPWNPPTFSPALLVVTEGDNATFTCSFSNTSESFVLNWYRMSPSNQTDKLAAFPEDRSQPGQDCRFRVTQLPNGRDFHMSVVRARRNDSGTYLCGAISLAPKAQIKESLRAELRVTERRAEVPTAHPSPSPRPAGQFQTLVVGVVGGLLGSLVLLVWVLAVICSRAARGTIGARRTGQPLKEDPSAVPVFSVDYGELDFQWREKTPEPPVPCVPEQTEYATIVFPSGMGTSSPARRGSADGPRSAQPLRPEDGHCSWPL
In words: Jurkat-PD-1 Cell Binding High-Content Screening Assay (CBA). Type of test: cell-based. Particulars: Jurkat-PD-1 cells, PE-labeled PD-L1-Ig 20 nM final; read-out: Jurkat HPD1_PDL1 IC50. The method, boiled down:
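Jurkat-hPD-1 cells in DMEM with 10% fetal calf serum receive test compound and are held at 37° C for 2 h. PE-labeled PD-L1-Ig is added at 20 nM final and left for 1 hour. Cells are then fixed and Hoechst-stained, and binding is measured by imaging.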
With `Cc1cccc(C[C@@H]2NC(=O)[C@H](CC(=O)O)NC(=O)[C@H](Cc3ccc(OCC(=O)O)cc3)NC(=O)[C@H](CN)NC(=O)CSC[C@@H](C(N)=O)NC(=O)[C@H](CCCN)NC(=O)[C@H](C(C)C)NC(=O)[C@H](CC3CCCCC3)NC(=O)[C@H](CCN)NC(=O)[C@@H](CC(C)C)NC(=O)[C@H](CCCN)NC(=O)[C@H](Cc3ccc(OCC(=O)O)cc3)NC(=O)[C@H](Cc3ccc(-c4ccccc4)cc3)NC(=O)[C@H](Cc3ccc(OCC(=O)O)cc3)NC2=O)c1` [Compound 1779] ({CH2CO}-[Dap]Y(Carboxymethyl)D[Phe(3-Me)]Y(Carboxymethyl)[Bip]Y(Carboxymethyl)[Orn][dL][Dab][Cha]V[Orn]C-NH2; thioether N-14), the IC50 was 16.6 nM.

`Cc1cccc(C[C@@H]2NC(=O)[C@H](CC(=O)O)NC(=O)[C@H](Cc3ccc(OCC(=O)O)cc3)NC(=O)[C@H](CN)NC(=O)CSC[C@@H](C(N)=O)NC(=O)[C@H](CC(N)=O)NC(=O)[C@H](C(C)C)NC(=O)[C@H](CC3CCCCC3)NC(=O)[C@H](CCN)NC(=O)[C@@H](CC(C)C)NC(=O)[C@H](CCCN)NC(=O)[C@H](Cc3ccc(OCC(=O)O)cc3)NC(=O)[C@H](Cc3ccc(-c4ccccc4)cc3)NC(=O)[C@H](Cc3ccc(OCC(=O)O)cc3)NC2=O)c1` [Compound 1780] ({CH2CO}-[Dap]Y(Carboxymethyl)D[Phe(3-Me)]Y(Carboxymethyl)[Bip]Y(Carboxymethyl)[Orn][dL][Dab][Cha]VNC-NH2; thioether N-14): the IC50 came out at 11.3 nM. Regarding `Cc1cccc(C[C@@H]2NC(=O)[C@H](CC(=O)O)NC(=O)[C@H](Cc3ccc(OCC(=O)O)cc3)NC(=O)[C@H](CN)NC(=O)CSC[C@@H](C(N)=O)NC(=O)[C@H](CC(=O)O)NC(=O)[C@H](C(C)C)NC(=O)[C@H](CC3CCCCC3)NC(=O)[C@H](CCN)NC(=O)[C@@H](CC(C)C)NC(=O)[C@H](CCCN)NC(=O)[C@H](Cc3ccc(OCC(=O)O)cc3)NC(=O)[C@H](Cc3ccc(-c4ccccc4)cc3)NC(=O)[C@H](Cc3ccc(OCC(=O)O)cc3)NC2=O)c1` [Compound 1781] ({CH2CO}-[Dap]Y(Carboxymethyl)D[Phe(3-Me)]Y(Carboxymethyl)[Bip]Y(Carboxymethyl)[Orn][dL][Dab][Cha]VDC-NH2; thioether N-14), the IC50 amounted to 14.2 nM. In the case of `Cc1cccc(C[C@@H]2NC(=O)[C@H](CC(=O)O)NC(=O)[C@H](Cc3ccc(OCC(=O)O)cc3)NC(=O)[C@H](CN)NC(=O)CSC[C@@H](C(N)=O)NC(=O)[C@H](CCC(N)=O)NC(=O)[C@H](C(C)C)NC(=O)[C@H](CC3CCCCC3)NC(=O)[C@H](CCN)NC(=O)[C@@H](CC(C)C)NC(=O)[C@H](CCCN)NC(=O)[C@H](Cc3ccc(OCC(=O)O)cc3)NC(=O)[C@H](Cc3ccc(-c4ccccc4)cc3)NC(=O)[C@H](Cc3ccc(OCC(=O)O)cc3)NC2=O)c1` [Compound 1782] ({CH2CO}-[Dap]Y(Carboxymethyl)D[Phe(3-Me)]Y(Carboxymethyl)[Bip]Y(Carboxymethyl)[Orn][dL][Dab][Cha]VQC-NH2; thioether N-14), the IC50 came to 23.6 nM. With `Cc1cccc(C[C@@H]2NC(=O)[C@H](CC(=O)O)NC(=O)[C@H](Cc3ccc(OCC(=O)O)cc3)NC(=O)[C@H](CN)NC(=O)CSC[C@@H](C(N)=O)NC(=O)[C@H]([C@@H](C)O)NC(=O)[C@H](C(C)C)NC(=O)[C@H](CC3CCCCC3)NC(=O)[C@H](CCN)NC(=O)[C@@H](CC(C)C)NC(=O)[C@H](CCCN)NC(=O)[C@H](Cc3ccc(OCC(=O)O)cc3)NC(=O)[C@H](Cc3ccc(-c4ccccc4)cc3)NC(=O)[C@H](Cc3ccc(OCC(=O)O)cc3)NC2=O)c1` [Compound 1783] ({CH2CO}-[Dap]Y(Carboxymethyl)D[Phe(3-Me)]Y(Carboxymethyl)[Bip]Y(Carboxymethyl)[Orn][dL][Dab][Cha]VTC-NH2; thioether N-14), the IC50 came to 14.4 nM.
